Data published in paper PMC12040169 (PLOS Biology, 2025).
Values after ≈ are worked out from the molar mass of the structure shown. Values joined by “and” are separate entries in the source; they are usually repeats but may differ in a detail not shown here. Equal entries are not always repeated.

Tests used:
in vitro [1] = assay: in vitro; set-up: Viability of infected HeLa host cells, resazurin conversion, bulk resorufin fluorescence relative to DMSO; conditions: human, hela cells; bulk resorufin, mean of 3
[2] = tested on: T1, CTL2-GFP (C. trachomatis L2/434/Bu, GFP-expressing); assay: microbe, parasite or virus in culture; set-up: C. trachomatis growth in HeLa, dose-response, mean of bulk GFP fluorescence and imaged total inclusion area; conditions: Chlamydia trachomatis, HeLa, 28.5 h; mean of GFP and inclusion area
T1 construct: L2/434/Bu, GFP-expressing
Excerpt: (§1) We screened a library of 36,785 small molecules displaying drug-like properties and covering a wide chemical space (Fig 1A and S2A Data). In this process, we also complemented the assay described above with an imaging-based readout (Fig 1B). After measurements of bulk GFP and resorufin fluorescence, cells were fixed, stained with the DNA dye Hoechst, and imaged at a high-content imaging platform to detect chlamydial inclusions (GFP) and host cell nuclei (Hoechst). The total area and number of inclusions in individual wells and the number of nuclei then served as additional proxies for chlamydial growth and host cell viability. […] MICs were calculated as described above.

[3] = tested on: T1, CTL2-GFP (C. trachomatis L2/434/Bu, GFP-expressing); assay: microbe, parasite or virus in culture; set-up: species or system HeLa; C. trachomatis growth in HeLa, dose-response, mean of bulk GFP fluorescence and imaged total inclusion area; conditions: Chlamydia trachomatis, 28.5 h; mean of GFP and inclusion area
Excerpt: as §1

HeLa = conditions: bulk resorufin, single well, 28.5 h, 10 µM, Bulk resorufin fluorescence
in vitro [4] = conditions: human, hela cells, % viability

Structure (SMILES) | % viability (HeLa) | viability at 28.5 h, 10 µM (in vitro [4]) [%] | other results
O=C(Nc1ccccc1N1CCCNCC1)c1ccc2ccccc2c1 [c29e] | – | – | viability at 28.5 h, 0.000416667 µM (in vitro [1]): 108%; viability at 28.5 h, 0.00125 µM (in vitro [1]): 107%; viability at 28.5 h, 0.00375 µM (in vitro [1]): 108%; viability at 28.5 h, 0.0123333 µM (in vitro [1]): 107%; viability at 28.5 h, 0.037 µM (in vitro [1]): 109%; viability at 28.5 h, 0.111 µM (in vitro [1]): 116%; viability at 28.5 h, 0.333 µM (in vitro [1]): 114%; viability at 28.5 h, 1 µM (in vitro [1]): 115%; viability at 28.5 h, 3 µM (in vitro [1]): 111%; viability at 28.5 h, 10 µM (in vitro [1]): 116%; viability at 28.5 h, 30 µM (in vitro [1]): 112%; IC50 [2]: 2.87 µM; MIC [3]: 5.56 µM (≈ 1.92 µg/mL)
COc1ccc([C@@H]2CN(C)C[C@H]2NC(=O)Nc2ccc(Cl)c(Cl)c2)cc1OC [c39e] | – | – | viability at 28.5 h, 0.000416667 µM (in vitro [1]): 93.1%; viability at 28.5 h, 0.00125 µM (in vitro [1]): 88.4%; viability at 28.5 h, 0.00375 µM (in vitro [1]): 92.6%; viability at 28.5 h, 0.0123333 µM (in vitro [1]): 90.6%; viability at 28.5 h, 0.037 µM (in vitro [1]): 94.9%; viability at 28.5 h, 0.111 µM (in vitro [1]): 83.9%; viability at 28.5 h, 0.333 µM (in vitro [1]): 87.9%; viability at 28.5 h, 1 µM (in vitro [1]): 84.4%; viability at 28.5 h, 3 µM (in vitro [1]): 86.1%; viability at 28.5 h, 10 µM (in vitro [1]): 84.6%; viability at 28.5 h, 30 µM (in vitro [1]): 81.3%; IC50 [2]: 4.96 µM; MIC [3]: 5.39 µM (≈ 2.29 µg/mL)
CCC1C(c2ccc(C)cc2)=CCC(C(=O)NCCCN(C)C)C1C (centres unmarked) [c30e] | – | – | viability at 28.5 h, 0.000416667 µM (in vitro [1]): 91.8%; viability at 28.5 h, 0.00125 µM (in vitro [1]): 95.1%; viability at 28.5 h, 0.00375 µM (in vitro [1]): 91.6%; viability at 28.5 h, 0.0123333 µM (in vitro [1]): 87.1%; viability at 28.5 h, 0.037 µM (in vitro [1]): 90.5%; viability at 28.5 h, 0.111 µM (in vitro [1]): 97.1%; viability at 28.5 h, 0.333 µM (in vitro [1]): 87.9%; viability at 28.5 h, 1 µM (in vitro [1]): 92.4%; viability at 28.5 h, 3 µM (in vitro [1]): 89.5%; viability at 28.5 h, 10 µM (in vitro [1]): 94.4%; viability at 28.5 h, 30 µM (in vitro [1]): 55.5%; IC50 [2]: 3.07 µM; MIC [3]: 8.94 µM (≈ 3.06 µg/mL)
Fc1cccc(F)c1OCCOc1nc(N2CCNCC2)ccc1C(F)(F)F [c21e] | – | – | viability at 28.5 h, 0.000416667 µM (in vitro [1]): 85.4%; viability at 28.5 h, 0.00125 µM (in vitro [1]): 87.7%; viability at 28.5 h, 0.00375 µM (in vitro [1]): 84%; viability at 28.5 h, 0.0123333 µM (in vitro [1]): 87.6%; viability at 28.5 h, 0.037 µM (in vitro [1]): 84.7%; viability at 28.5 h, 0.111 µM (in vitro [1]): 89.9%; viability at 28.5 h, 0.333 µM (in vitro [1]): 90.4%; viability at 28.5 h, 1 µM (in vitro [1]): 93.9%; viability at 28.5 h, 3 µM (in vitro [1]): 87.9%; viability at 28.5 h, 10 µM (in vitro [1]): 91.3%; viability at 28.5 h, 30 µM (in vitro [1]): 0%; IC50 [2]: 1.7 µM; MIC [3]: 8.28 µM (≈ 3.34 µg/mL)
O=C(O)CCS(=O)(=O)c1cccc2cccnc12 [CBK131911] | 92.5% | 102 | –
O=C(Nc1cncc(OC2CCNCC2)n1)C1CCC1 [CBK026728T] | 94% | 81.9 | –
Cc1nnc(SCC(=O)Nc2ccc(CN3CCOCC3)cc2)s1 [CBK269849] | 112% | 96.4 | –
O=C(CSC1=NCCS1)Nc1ccnc2ccccc12 [CBK112077] | 98.9% | 101 | –
Nc1c(-c2cccc3cccnc23)cnc2ncccc12 [CBK083682] | 88.7% | 108 | –
CS(=O)(=O)Nc1cc2cccnc2nc1-c1ccc2c(c1)CCO2 [CBK085690] | 102% | 104 | –
O=C(NCCc1ccccc1)[C@H]1C=CCN1C(=O)c1ccc(F)cc1 [CBK282383] | 96.3% and 92.6% | 89.4 | –
CC(C)(C)NC(=O)CN1C(=O)[C@H]2CCCN2C(=O)c2ccccc21 [CBK282428] | 107% | 89.5 | –
CC(=O)Nc1ccc(NS(=O)(=O)c2ccc(O)c(C(=O)O)c2)cc1 [CBK092150] | 96.9% | 115 | –
CC(CCN1CC2C[C@@H](O)CN2C[C@H]1C)c1ccccc1 (some centres unmarked) [CBK283010] | 89.2% | 82.4 | –
O=C(CN1C(=O)[C@@H]2CCCN2c2ncccc21)NCc1ccccc1 [CBK286203] | 117% | 115 | –
O=C(Cn1c([C@H]2CCCO2)cc2cccnc21)NC1CC1 [CBK282274] | 102% | 94.8 | –
COCCn1cc(CN2CC3CCCN3C[C@H]2C)c2ccccc21 (some centres unmarked) [CBK285427] | 106% | 95.7 | –
Cc1ccc(C(=O)NCC(=O)NCC(=O)O)cc1 [CBK262170] | 91.7% | 103 | –
Cc1csc(NC(=O)c2ccc(S(=O)(=O)N3CCCCC3)cc2)n1 [CBK069735] | 103% | 102 | –
CCN(Cc1ccccc1)C(=O)NCC1COc2ccccc2O1 (centres unmarked) [CBK155213] | 89.3% | 103 | –

Structure (SMILES) | % viability (HeLa) | viability at 28.5 h, 10 µM (in vitro [4]) [%] | other results
COc1ccc(C2N(CC(N)=O)CCOC23CCN(C(=O)c2ccc4ccccc4c2)CC3)cc1 (centres unmarked) [CBK115613] | 101% | 96.9 | –
O=C(O)c1c(NS(=O)(=O)c2ccc(Oc3ccccc3)cc2)sc2c1CCCC2 [CBK024820] | 106% | 101 | –
Cc1ccc(-c2csc3c(=O)[nH]c(N4CCC5(CC4)OCCO5)nc23)cc1 [CBK288034] | 92.2% | 83.9 | –
CN(C)S(=O)(=O)c1cc(C(=O)O)c(Cl)cc1Cl [CBK113173] | 94% | 101 | –
COc1ccc(C(=O)Nc2nnc(CC(=O)N/N=C/c3ccccc3OC)s2)cc1 [CBK072076] | 101% | 91.8 | –
O=C(C1CC1)N1CCC[C@H]1Cn1nc(-c2cccs2)ccc1=O [CBK284250] | 80.9% | 76.7 | –
O=C(c1cccnc1)N1C2CCC(C2)[C@H]1COc1ccc(F)cc1 (some centres unmarked) [CBK285268] | 87.8% | 90.2 | –
CCN(CC)c1ccc(NC(=O)N2CCN(Cc3ccccc3)CC2)cc1 [CBK155645] | 90.4% | 99.7 | –
O=c1cc(CSc2ccccn2)[nH]c2[nH]n(-c3ccccc3)c(=O)c12 [CBK269895] | 109% | 92.7 | –
CCC(C)NC(=O)Cn1c([C@H]2CCCO2)cc2cccnc21 (some centres unmarked) [CBK282874] | 100% | 88.1 | –
O=C(CC1SC(Nc2ccc(O)cc2)=NC1=O)c1ccccc1 (centres unmarked) [CBK267009] | 89% | 98.5 | –
C[C@@H]1CN2CCCC2CN1Cc1ccsc1 (some centres unmarked) [CBK285411] | 109% | 110 | –
Clc1ccc(COc2cncc(OC3CCN(CCN4CCOCC4)C3)n2)cc1Cl (centres unmarked) [CBK084433] | 100% | 87 | –
O=C(C1CC1)N1C2CCC(C2)[C@H]1COc1ccc(F)cc1 (some centres unmarked) [CBK284597] | 100% | 95 | –
COc1ccc(C(=O)Nc2ccc(OCC(=O)O)cc2)cc1 [CBK260894] | 85.6% | 91.4 | –
C=CCNC(=O)[C@H]1C=CCN1S(=O)(=O)c1cccc2ccccc12 [CBK282440] | 102% | 91 | –
CC(C)c1n[nH]c2c1/C(=N\N)c1ccccc1-2 [CBK017384] | 73.8% | 85.4 | –
CCCCOC(=O)c1ccc(NC(=O)Nc2ccc3ccc(Cl)nc3n2)cc1 [CBK115932] | 97.1% | 93.8 | –
OC1CCn2c1nc1cc(C(F)(F)F)ccc12 (centres unmarked) [CBK115448] | 70.8% | 80.4 | –
